Laboratory results taken from patent US8460712B2, “Prolonged release formulations comprising an 2-oxo-1-pyrrolidine derivate” (UCB Pharma, S.A., priority 2008, dated 2013).

Assays:
rat hippocampal slices [1] = test: epileptiform responses in hippocampal slices induced by high-K+/low-Ca2+ fluid (HKLCF); type: cell-based, Sprague-Dawley rats; design: rate of spontaneous field bursting: dose or concentration left out as unconfirmed; conditions: for evoked epileptiform responses (PS1 amplitude, repetitive PSs per evoked burst): CA3 area, fimbrial stimulation, HKLCF perfusion; for rate of spontaneous field bursting: HKLCF
Procedure: The effect of brivaracetam on epileptiform responses induced by high-K+/low-Ca2+ concentrations or by bicuculline was examined in transverse hippocampal slices prepared from Sprague-Dawley rats according to previously reported standard procedures. The epileptiform responses were induced by passing from a normal perfusion of artificial cerebrospinal fluid (ACSF) (K+ 3 mM; Ca2+ 2.4 mM) to either high-K+/low-Ca2+ fluid (HKLCF) (K+ 7.5 mM; Ca2+ 0.5 mM) or to 5 M bicuculline methiodide (BMI)-containing ACSF.
Extracellular field potentials (FPs) were recorded in the CA3 area of the slices with 2 M NaCl-filled glass microelectrodes. The evoked FPs were recorded at 10-min intervals in response to fimbrial stimulation with constant current rectangular pulses that elicit a single population spike (PS) of 50-75% of the maximal amplitude when the slice is in ACSF. In the HKLCF model, 2 min of spontaneous activity were also recorded, in the middle of each 10-min interval between the recordings of evoked responses.
Either brivaracetam or levetiracetam was added to the bathing fluid of the slices 20 min before shifting from ACSF to either HKLCF or […] BMI-containing ACSF, and was kept in the perfusion fluid throughout the experiment.

mice [2] = test: corneal kindling of mice; type: in vivo; conditions: continued corneal stimulations after termination of treatment; group previously treated with the highest dose
[3] = system: genetically sound-sensitive male mice; test: audiogenic seizures in mice; type: in vivo; conditions: acoustic stimulus 90 dB, 30 s; brivaracetam i.p. 30 min, levetiracetam i.p. 60 min before
Procedure: Audiogenic seizures in mice: Genetically sound-sensitive male mice (16-28 g; n=10 per group), responding with wild running, clonic and tonic convulsions to an acoustic stimulation, were used. Audiogenic seizures were induced by an acoustic stimulus (90 dB, 10-20 kHz) applied for 30 s. The mice were pretreated with either saline, brivaracetam (i.p., 30 min) or levetiracetam (i.p., 60 min), and the proportion of mice protected against clonic convulsions was used as the end point to assess anticonvulsant activity.

mice [4] = test: maximal electroshock in mice; type: in vivo; conditions: i.p. 30 min before seizure induction; higher ED50 than audiogenic
mice [5] = test: chemically induced seizures in mice (pentylenetetrazol); type: in vivo; conditions: i.p. 30 min before seizure induction; pentylenetetrazol 83 mg kg-1 s.c.; higher ED50 than audiogenic
Procedure: The dose was selected based on dose-effect curves in saline-treated animals as the convulsive dose inducing clonic convulsions of all four extremities in 97% of the animals. Immediately after administration of the chemoconvulsant, the mice were placed individually in small plastic cages (25 13 8 cm) and observed for the presence of clonic convulsions in all four extremities, for 60 min. The occurrence of tonic convulsions (hindlimb extension) and mortality was also recorded during this interval. The proportion of mice protected against clonic convulsions was calculated and used as the end point for anticonvulsant activity.

[6] = system: fully amygdala-kindled rats; test: fully amygdala-kindled rats; type: in vivo; conditions: for dose from which significant suppression in motor-seizure severity was induced: rat, in vivo
GAERS rats = test: spontaneous SWDs in GAERS rats; type: in vivo; conditions: for dose from which spontaneous SWDs were significantly suppressed: rat, in vivo
rat hippocampal slices [7] = conditions: background statement; cited from earlier work
rat hippocampal slices [8] = conditions: background statement; cited from earlier work; remark: listed apart in the source

CC[C@@H](C(N)=O)N1C[C@H](C=C(F)F)CC1=O [Seletracetam, (2S)-2-[(4S)-4-(2,2-difluorovinyl)-2-oxo-pyrrolidin-1-yl]butanamide]
solubility (water solubility): > 500 mg/mL

CCC[C@@H]1CC(=O)N([C@@H](CC)C(N)=O)C1 [Brivaracetam, (2S)-2-[(4R)-2-oxo-4-propyl-pyrrolidin-1-yl] butanamide]
evoked epileptiform responses (PS1 amplitude, repetitive PSs per evoked burst) (rat hippocampal slices [1]): reduced | rate of spontaneous field bursting (rat hippocampal slices [1]): reduced | incidence of generalized motor seizures (mice [2]): persistent reduction | protection against the expression of clonic convulsions [3]: protected | protection against tonic hindlimb extension induced by a maximal electroshock (mice [4]): protected | protection against clonic convulsions induced by pentylenetetrazol (mice [5]): protected | after-discharge duration ([6]; highest dose tested, 212.3 mg kg-1): significantly reduced | dose from which significant suppression in motor-seizure severity was induced [6]: ≥ 21.2 mg/kg | solubility (water solubility): > 500 mg/mL | inhibition of spontaneous SWDs (GAERS rats; highest dose tested, 67.9 mg kg-1): complete inhibition | dose from which spontaneous SWDs were significantly suppressed (GAERS rats): ≥ 2.1 mg/kg

CC[C@@H](C(N)=O)N1CCCC1=O [Levetiracetam, (S)-(−)-alpha-ethyl-2-oxo-1-pyrrolidine acetamide]
evoked epileptiform responses (PS1 amplitude, repetitive PSs per evoked burst) (rat hippocampal slices [1]): reduced | rate of spontaneous field bursting (rat hippocampal slices [1]): not | protection against the expression of clonic convulsions [3]: protected | epileptiform responses induced by bicuculline (rat hippocampal slices [7]): reduces | dose from which significant suppression in motor-seizure severity was induced [6]: ≥ 170 mg/kg | after-discharge duration ([6]; up to 1700 mg kg-1): inactive | epileptiform responses induced by high-K+/low-Ca2+ concentrations (rat hippocampal slices [8]): reduces | dose from which spontaneous SWDs were significantly suppressed (GAERS rats): ≥ 5.4 mg/kg
